From ChEMBL document CHEMBL1156893, “Structure-activity relationships amongst 4-position quinoline methanol antimalarials that inhibit the growth of drug sensitive and resistant strains of Plasmodium falciparum” (Bioorg Med Chem Lett, 2010)
Values after ≈ are worked out from the molar mass of the structure shown.

Columns and labels:
[1] = Cytotoxicity against mouse RAW264.7 cells; type: cell-based; conditions: read-out: LC50 (the source's name)
Plasmodium falciparum [2] = test: Antimalarial activity against Plasmodium falciparum TM90C2A; type: functional, organism-based
Plasmodium falciparum [3] = test: Antimalarial activity against chloroquine-resistant and mefloquine-sensitive Plasmodium falciparum W2; type: functional, organism-based
Plasmodium falciparum [4] = test: Antimalarial activity against chloroquine, pyrimethamine and mefloquine-resistant Plasmodium falciparum TM1C235; type: functional, organism-based
Plasmodium falciparum [5] = test: Antimalarial activity against chloroquine and mefloquine-sensitive Plasmodium falciparum D6; type: functional
[6] = Half life in mouse liver microsomes; type: ADME, Microsome
[7] = Apparent permeability from apical to basolateral side of MDCK cell monolayer expressing MDR1; type: ADME, cell-based, Canis lupus familiaris; conditions: dog
Plasmodium berghei = test: Antimalarial activity against Plasmodium berghei infected in ICR mice (Mus musculus) assessed as delay in mortality at 160 mg/kg, perorally for 3 days; type: functional, organism-based; design: dose 160 mg/kg

Structure (SMILES) | CC50 [1] | IC90 (Plasmodium falciparum [2]) | IC90 (Plasmodium falciparum [3]) | IC90 (Plasmodium falciparum [4]) | IC90 (Plasmodium falciparum [5]) | half-life [6] | Papp A→B [7] | IC50 (Plasmodium falciparum [2]) | IC50 (Plasmodium falciparum [3]) | IC50 (Plasmodium falciparum [4]) | survival time (Plasmodium berghei)
COCCCNCC(O)c1cc(C(F)(F)F)nc2c(C(F)(F)F)cccc12 (stereo not given) | 25.2 µg/mL (≈ 63.5 µM) | 0.086 µg/mL (≈ 0.217 µM) | 0.051 µg/mL (≈ 0.129 µM) | 0.084 µg/mL (≈ 0.212 µM) | 0.012 µg/mL (≈ 0.0303 µM) |  |  |  |  |  | 
OC(c1cc(C(F)(F)F)nc2c(C(F)(F)F)cccc12)C1CCCCN1 (stereo not given) [MEFLOQUINE] |  |  |  |  |  | > 60 min |  |  |  |  | 
CCCN(CCC)CC(O)c1cc(C(F)(F)F)nc2c(C(F)(F)F)cccc12 (stereo not given) | 33.2 µg/mL (≈ 81.2 µM) | 0.03 µg/mL (≈ 0.0735 µM) | 0.02 µg/mL (≈ 0.049 µM) | 0.02 µg/mL (≈ 0.049 µM) | 0.005 µg/mL (≈ 0.0122 µM) |  |  |  |  |  | 
CC(C)CNCC(O)c1cc(C(F)(F)F)nc2c(C(F)(F)F)cccc12 (stereo not given) | 27.1 µg/mL (≈ 71.3 µM) | 0.021 µg/mL (≈ 0.0552 µM) | 0.013 µg/mL (≈ 0.0342 µM) | 0.015 µg/mL (≈ 0.0394 µM) | 0.002 µg/mL (≈ 0.00526 µM) | 27 min |  |  |  |  | 
CSCCCNCC(O)c1cc(C(F)(F)F)nc2c(C(F)(F)F)cccc12 (stereo not given) | 8.62 µg/mL (≈ 20.9 µM) |  | 0.036 µg/mL (≈ 0.0873 µM) |  | 0.01 µg/mL (≈ 0.0242 µM) |  | 38 ×10⁻⁶ cm/s |  |  |  | 
CCCCN(CCCC)CC(O)c1cc(C(F)(F)F)nc2c(C(F)(F)F)cccc12 (stereo not given) | 20.1 µg/mL (≈ 46 µM) | 0.019 µg/mL (≈ 0.0435 µM) | 0.011 µg/mL (≈ 0.0252 µM) | 0.027 µg/mL (≈ 0.0619 µM) | 0.002 µg/mL (≈ 0.00458 µM) |  |  |  |  |  | 
OCCNCC(O)c1cc(C(F)(F)F)nc2c(C(F)(F)F)cccc12 (stereo not given) |  | 0.388 µg/mL (≈ 1.05 µM) | 0.49 µg/mL (≈ 1.33 µM) | 0.485 µg/mL (≈ 1.32 µM) | 0.26 µg/mL (≈ 0.706 µM) |  |  |  |  |  | 
CCc1nc(C)cn1CC(O)c1cc(C(F)(F)F)nc2c(C(F)(F)F)cccc12 (stereo not given) | 25.7 µg/mL (≈ 61.6 µM) | 0.057 µg/mL (≈ 0.137 µM) | 0.043 µg/mL (≈ 0.103 µM) | 0.056 µg/mL (≈ 0.134 µM) | 0.069 µg/mL (≈ 0.165 µM) | 22 min |  |  |  |  | 
CCCCNCC(O)c1cc(C(F)(F)F)nc2c(C(F)(F)F)cccc12 (stereo not given) | 2.96 µg/mL (≈ 7.8 µM) | 0.012 µg/mL (≈ 0.0316 µM) | 0.001 µg/mL (≈ 0.00263 µM) | 0.009 µg/mL (≈ 0.0237 µM) | 0.002 µg/mL (≈ 0.00526 µM) |  | 25 ×10⁻⁶ cm/s |  |  |  | 
CN(C)CC(O)c1cc(C(F)(F)F)nc2c(C(F)(F)F)cccc12 (stereo not given) | 24.6 µg/mL (≈ 69.9 µM) | 0.173 µg/mL (≈ 0.491 µM) | 0.069 µg/mL (≈ 0.196 µM) | 0.079 µg/mL (≈ 0.224 µM) | 0.02 µg/mL (≈ 0.0568 µM) |  |  |  |  |  | 
CC(C)NCC(O)c1cc(C(F)(F)F)nc2c(C(F)(F)F)cccc12 (stereo not given) | 5.2 µg/mL (≈ 14.2 µM) |  |  | 0.023 µg/mL (≈ 0.0628 µM) | 0.005 µg/mL (≈ 0.0136 µM) | 60 min |  |  |  |  | 
OC(CNCc1ccccc1)c1cc(C(F)(F)F)nc2c(C(F)(F)F)cccc12 (stereo not given) | 20.4 µg/mL (≈ 49.3 µM) | 0.151 µg/mL (≈ 0.364 µM) | 0.067 µg/mL (≈ 0.162 µM) | 0.086 µg/mL (≈ 0.208 µM) | 0.019 µg/mL (≈ 0.0459 µM) |  |  |  |  |  | 
NCC(O)c1cc(C(F)(F)F)nc2c(C(F)(F)F)cccc12 (stereo not given) | 8.07 µg/mL (≈ 24.9 µM) | > 0.5 µg/mL | 0.4 µg/mL (≈ 1.23 µM) | > 0.5 µg/mL | 0.47 µg/mL (≈ 1.45 µM) |  |  |  |  |  | 
CCCCOCC(O)c1cc(C(F)(F)F)nc2c(C(F)(F)F)cccc12 (stereo not given) |  |  |  |  | > 0.5 µg/mL |  |  | > 0.5 µg/mL | > 0.5 µg/mL | > 0.5 µg/mL | 
OC(CNCCF)c1cc(C(F)(F)F)nc2c(C(F)(F)F)cccc12 (stereo not given) |  |  |  |  | > 0.5 µg/mL |  |  | > 0.5 µg/mL | > 0.5 µg/mL | > 0.5 µg/mL | 
OC(CNCC(F)(F)F)c1cc(C(F)(F)F)nc2c(C(F)(F)F)cccc12 (stereo not given) | 32.1 µg/mL (≈ 78.9 µM) |  |  |  | > 0.5 µg/mL |  |  | > 0.5 µg/mL | > 0.5 µg/mL | > 0.5 µg/mL | 
CCCCCCNCC(O)c1cc(C(F)(F)F)nc2c(C(F)(F)F)cccc12 (stereo not given) |  | 0.481 µg/mL (≈ 1.18 µM) | 0.372 µg/mL (≈ 0.911 µM) | 0.409 µg/mL (≈ 1 µM) | 0.124 µg/mL (≈ 0.304 µM) |  |  |  |  |  | 
CCCCCCC(O)c1cc(C(F)(F)F)nc2c(C(F)(F)F)cccc12 (stereo not given) |  |  |  |  | > 0.5 µg/mL |  |  | > 0.5 µg/mL | > 0.5 µg/mL | > 0.5 µg/mL | 
CNCC(O)c1cc(C(F)(F)F)nc2c(C(F)(F)F)cccc12 (stereo not given) | 13.7 µg/mL (≈ 40.4 µM) |  | 0.045 µg/mL (≈ 0.133 µM) |  | 0.017 µg/mL (≈ 0.0503 µM) | 60 min | 24 ×10⁻⁶ cm/s |  |  |  | 
OC(CNc1ccccc1)c1cc(C(F)(F)F)nc2c(C(F)(F)F)cccc12 (stereo not given) | 22.3 µg/mL (≈ 55.7 µM) | 0.5 µg/mL (≈ 1.25 µM) | 0.377 µg/mL (≈ 0.942 µM) | 0.437 µg/mL (≈ 1.09 µM) | 0.484 µg/mL (≈ 1.21 µM) |  |  |  |  |  | 
CCCCSCC(O)c1cc(C(F)(F)F)nc2c(C(F)(F)F)cccc12 (stereo not given) |  |  |  |  | > 0.5 µg/mL |  |  | > 0.5 µg/mL | > 0.5 µg/mL | > 0.5 µg/mL | 
CCN(CC)CC(O)c1cc(C(F)(F)F)nc2c(C(F)(F)F)cccc12 (stereo not given) | 2.09 µg/mL (≈ 5.5 µM) | 0.067 µg/mL (≈ 0.176 µM) | 0.026 µg/mL (≈ 0.0684 µM) | 0.037 µg/mL (≈ 0.0973 µM) | 0.009 µg/mL (≈ 0.0237 µM) |  |  |  |  |  | 
OC(c1cc(C(F)(F)F)nc2c(C(F)(F)F)cccc12)C1CCCCN1 (racemic) [MEFLOQUINE] |  |  |  |  |  |  | 9.4 ×10⁻⁶ cm/s |  |  |  | 
OC(CNCCc1ccccc1)c1cc(C(F)(F)F)nc2c(C(F)(F)F)cccc12 (stereo not given) | 9.64 µg/mL (≈ 22.5 µM) | 0.023 µg/mL (≈ 0.0537 µM) | 0.023 µg/mL (≈ 0.0537 µM) | 0.043 µg/mL (≈ 0.1 µM) | 0.019 µg/mL (≈ 0.0444 µM) |  |  |  |  |  | 
Cc1nc2ccccc2n1CC(O)c1cc(C(F)(F)F)nc2c(C(F)(F)F)cccc12 (stereo not given) |  | 0.32 µg/mL (≈ 0.728 µM) | 0.22 µg/mL (≈ 0.501 µM) | 0.31 µg/mL (≈ 0.706 µM) | 0.11 µg/mL (≈ 0.25 µM) | 9 min |  |  |  |  | 
COCCNCC(O)c1cc(C(F)(F)F)nc2c(C(F)(F)F)cccc12 (stereo not given) | 38.2 µg/mL (≈ 100 µM) | 0.1 µg/mL (≈ 0.262 µM) | 0.059 µg/mL (≈ 0.154 µM) | 0.093 µg/mL (≈ 0.243 µM) | 0.015 µg/mL (≈ 0.0392 µM) |  | 32 ×10⁻⁶ cm/s |  |  |  | 
CC(C)c1nccn1CC(O)c1cc(C(F)(F)F)nc2c(C(F)(F)F)cccc12 (stereo not given) | 50.1 µg/mL (≈ 120 µM) |  |  |  | > 0.5 µg/mL | 10 min |  | > 0.5 µg/mL | > 0.5 µg/mL | > 0.5 µg/mL | 
OC(Cn1cnc2ccccc21)c1cc(C(F)(F)F)nc2c(C(F)(F)F)cccc12 (stereo not given) |  | 0.45 µg/mL (≈ 1.06 µM) | 0.41 µg/mL (≈ 0.964 µM) | 0.48 µg/mL (≈ 1.13 µM) | 0.12 µg/mL (≈ 0.282 µM) | 4 min |  |  |  |  | 
OC(CNCCNCc1ccccc1)c1cc(C(F)(F)F)nc2c(C(F)(F)F)cccc12 (stereo not given) | 8.28 µg/mL (≈ 18.1 µM) |  | 0.029 µg/mL (≈ 0.0634 µM) |  | 0.006 µg/mL (≈ 0.0131 µM) |  | 8.4 ×10⁻⁶ cm/s |  |  |  | 10 days
CCCc1nccn1CC(O)c1cc(C(F)(F)F)nc2c(C(F)(F)F)cccc12 (stereo not given) | 50.1 µg/mL (≈ 120 µM) | 0.24 µg/mL (≈ 0.575 µM) | 0.32 µg/mL (≈ 0.767 µM) | 0.25 µg/mL (≈ 0.599 µM) | 0.36 µg/mL (≈ 0.863 µM) | 8 min |  |  |  |  | 
